Measurements from US10370343B2, “[6,6] Fused bicyclic HDAC8 inhibitors” (FORMA Therapeutics, Inc., priority 2015, dated 2019).
pIC50: −log10 of the molar value.

These compounds were tested against T1, Recombinant N-terminal GST tag full-length human HDAC8 (Homo sapiens, UniProt Q9BY41) (assay: HDAC8 probe binding assay, time resolved fluorescence (TRF) format). Conditions: compounds grouped by IC50 range (Table 2).
T1 construct: Recombinant N-terminal GST tag full-length human HDAC8; purchased SignalChem H90-30G-1000; host or cells: baculovirus in Sf9 insect cells
T1 sequence (Q9BY41 1-377): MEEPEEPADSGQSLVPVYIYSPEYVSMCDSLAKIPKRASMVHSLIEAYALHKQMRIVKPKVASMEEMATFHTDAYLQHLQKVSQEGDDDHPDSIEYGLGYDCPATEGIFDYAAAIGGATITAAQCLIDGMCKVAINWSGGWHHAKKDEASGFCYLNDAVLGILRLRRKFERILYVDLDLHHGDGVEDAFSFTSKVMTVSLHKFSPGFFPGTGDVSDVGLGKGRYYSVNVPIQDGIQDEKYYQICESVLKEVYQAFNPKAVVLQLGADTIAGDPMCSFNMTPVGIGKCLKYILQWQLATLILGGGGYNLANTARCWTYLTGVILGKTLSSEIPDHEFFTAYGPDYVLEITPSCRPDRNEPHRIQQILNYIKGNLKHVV
Procedure: The HDAC8 probe binding assay was performed using a time resolved fluorescence (TRF) assay format. Recombinant N-terminal GST tag full-length human HDAC8 was expressed and purified from baculovirus in Sf9 insect cells (SignalChem, #[…]-1000). […] Plates were incubated for 16 hours at room temperature before time resolved fluorescence was read on the Envision (Excitation at 340 nm, and Emission at 485 nm and 535 nm, Perkin Elmer). Data from HDAC8 Assays were reported as percent inhibition (inh) compared with control wells based on the following equation: % inh=1-((FLU-AveLow)/(AveHigh-AveLow)) where FLU=measured time resolved fluorescence. AveLow=average time resolved fluorescence of no enzyme control (n=32). AveHigh=average time resolved fluorescence of DMSO control (n=32). IC50 values were determined by curve fitting of the standard 4 parameter logistic fitting algorithm included in the Activity Base software package: IDBS XE Designer Model205. Data is fitted using the Levenburg Marquardt algorithm. Ranges of IC50 values for compounds of the invention are disclosed in Table 2: Table 2. provides the compounds arranged according to […] determined in a time resolved fluorescence (TRF) assay. The compounds are separated into four groups: […]

`Cc1ccc2nc(CN3C(=O)COc4ccc(C(=O)NO)cc43)cn2c1` [Compound I-365, N-hydroxy-4-((6-methylimidazo[1,2-a]pyridin-2-yl)methyl)-3-oxo-3,4-dihydro-2H-benzo[b][1,4]oxazine-6-carboxamide] and `O=C(NO)c1ccc2c(c1)N(Cc1cn3ccsc3n1)C(=O)CO2` [Compound I-363, N-hydroxy-4-(imidazo[2,1-b]thiazol-6-ylmethyl)-3-oxo-3,4-dihydro-2H-benzo[b][1,4]oxazine-6-carboxamide] fall in the same range of pIC50: 7.00 to 7.60 for the first, 7.00 to 7.60 for the second.

`COc1ccc(CN2C(=O)COc3ccc(C(=O)NO)cc32)cn1` [Compound I-332, N-hydroxy-4-((6-methoxypyridin-3-yl)methyl)-3-oxo-3,4-dihydro-2H-benzo[b][1,4]oxazine-6-carboxamide] and `COc1cc(CN2C(=O)COc3ccc(C(=O)NO)cc32)ccc1F` [Compound I-353, 4-(4-fluoro-3-methoxybenzyl)-N-hydroxy-3-oxo-3,4-dihydro-2H-benzo[b][1,4]oxazine-6-carboxamide] cannot be ordered by pIC50: no less than 7.60 for the first, 7.00 to 7.60 for the second.

`O=C(NO)c1ccc2c(c1)N(Cc1cc(Cl)cc(Cl)c1)C(=O)CO2` [Compound I-355, 4-(3,5-dichlorobenzyl)-N-hydroxy-3-oxo-3,4-dihydro-2H-benzo[b][1,4]oxazine-6-carboxamide] and `O=C(NO)c1ccc2c(c1)N(Cc1cc(Cl)cc(C(F)(F)F)c1)C(=O)CO2` [Compound I-349, 4-(3-chloro-5-(trifluoromethyl)benzyl)-N-hydroxy-3-oxo-3,4-dihydro-2H-benzo[b][1,4]oxazine-6-carboxamide] cannot be ordered by pIC50: no less than 7.60 for the first, 7.00 to 7.60 for the second.

`O=C(NO)c1ccc2c(c1)N(Cc1cc(-c3ccccc3)[nH]n1)C(=O)CO2` [Compound I-204, N-hydroxy-3-oxo-4-[(5-phenyl-1H-pyrazol-3-yl)methyl]-3,4-dihydro-2H-1,4-benzoxazine-6-carboxamide] and `O=C(NO)c1ccc2c(c1)N(Cc1nc(-c3ccccc3)co1)C(=O)CO2` [Compound I-202, N-hydroxy-3-oxo-4-((4-phenyloxazol-2-yl)methyl)-3,4-dihydro-2H-benzo[b][1,4]oxazine-6-carboxamide] cannot be ordered by pIC50: no less than 7.60 for the first, no less than 7.60 for the second.

`COc1ccc(CN2CC(C(=O)NC3CCOCC3)Oc3ccc(C(=O)NO)cc32)cc1` (centres unmarked) [Compound I-172, N6-hydroxy-4-(4-methoxybenzyl)-N2-(tetrahydro-2H-pyran-4-yl)-3,4-dihydro-2H-benzo[b][1,4]oxazine-2,6-dicarboxamide] and `COc1ccc(CN2CC(C(=O)N(C)C)Oc3ccc(C(=O)NO)cc32)cc1` (centres unmarked) [Compound I-169, N6-hydroxy-4-(4-methoxybenzyl)-N2,N2-dimethyl-3,4-dihydro-2H-benzo[b][1,4]oxazine-2,6-dicarboxamide] fall in the same range of pIC50: 7.00 to 7.60 for the first, 7.00 to 7.60 for the second.

`CN1C(=O)CCc2cc(CN3C(=O)COc4ccc(C(=O)NO)cc43)ccc21` [Compound I-183, N-hydroxy-4-((1-methyl-2-oxo-1,2,3,4-tetrahydroquinolin-6-yl)methyl)-3-oxo-3,4-dihydro-2H-benzo[b][1,4]oxazine-6-carboxamide] and `Cn1cc2cc(CN3C(=O)COc4ccc(C(=O)NO)cc43)ccc2n1` [Compound I-238, N-hydroxy-4-((2-methyl-2H-indazol-5-yl)methyl)-3-oxo-3,4-dihydro-2H-benzo[b][1,4]oxazine-6-carboxamide] cannot be ordered by pIC50: no less than 7.60 for the first, no less than 7.60 for the second.

`N#Cc1ccc(Cl)c(CN2C(=O)COc3ccc(C(=O)NO)cc32)c1` [Compound I-373, 4-(2-chloro-5-cyanobenzyl)-N-hydroxy-3-oxo-3,4-dihydro-2H-benzo[b][1,4]oxazine-6-carboxamide] and `O=C(NO)c1ccc2c(c1)N(Cc1cc(F)ccc1Cl)C(=O)CO2` [Compound I-352, 4-(2-chloro-5-fluorobenzyl)-N-hydroxy-3-oxo-3,4-dihydro-2H-benzo[b][1,4]oxazine-6-carboxamide] cannot be ordered by pIC50: no less than 7.60 for the first, no less than 7.60 for the second.

`O=C(NO)c1ccc2c(c1)N(Cc1ccc3ccncc3c1)C(=O)CO2` [Compound I-337, N-hydroxy-4-(isoquinolin-7-ylmethyl)-3-oxo-3,4-dihydro-2H-benzo[b][1,4]oxazine-6-carboxamide] and `O=C(NO)c1ccc2c(c1)N(Cc1ccc3cnccc3c1)C(=O)CO2` [Compound I-336, N-hydroxy-4-(isoquinolin-6-ylmethyl)-3-oxo-3,4-dihydro-2H-benzo[b][1,4]oxazine-6-carboxamide] cannot be ordered by pIC50: no less than 7.60 for the first, no less than 7.60 for the second.

`CC1(C)Oc2ccc(C(=O)NO)cc2N(Cc2cccc(Oc3ccccc3)c2)C1=O` [Compound I-225, N-hydroxy-2,2-dimethyl-3-oxo-4-(3-phenoxybenzyl)-3,4-dihydro-2H-benzo[b][1,4]oxazine-6-carboxamide] and `CC1(C)Oc2ccc(C(=O)NO)cc2N(Cc2ccc(-c3ccccc3)cc2)C1=O` [Compound I-306, 4-([1,1′-biphenyl]-4-ylmethyl)-N-hydroxy-2,2-dimethyl-3-oxo-3,4-dihydro-2H-benzo[b][1,4]oxazine-6-carboxamide] fall in the same range of pIC50: 7.00 to 7.60 for the first, 7.00 to 7.60 for the second.

`O=C(NO)c1ccc2c(c1)N(Cc1ccc(N3CCOCC3)cc1)C(=O)CO2` [Compound I-177, N-hydroxy-4-(4-morpholinobenzyl)-3-oxo-3,4-dihydro-2H-benzo[b][1,4]oxazine-6-carboxamide] and `O=C(NO)c1ccc2c(c1)N(Cc1ccc(N3CCCC3)cc1)C(=O)CO2` [Compound I-176, N-hydroxy-3-oxo-4-(4-(pyrrolidin-1-yl)benzyl)-3,4-dihydro-2H-benzo[b][1,4]oxazine-6-carboxamide] cannot be ordered by pIC50: 7.00 to 7.60 for the first, no less than 7.60 for the second.

`COc1ccc(CN2C(=O)COc3c(F)cc(C(=O)NO)cc32)cc1` [Compound I-163, 8-fluoro-N-hydroxy-4-(4-methoxybenzyl)-3-oxo-3,4-dihydro-2H-benzo[b][1,4]oxazine-6-carboxamide] and `COc1cc(F)cc(CN2C(=O)COc3ccc(C(=O)NO)cc32)c1` [Compound I-342, 4-(3-fluoro-5-methoxybenzyl)-N-hydroxy-3-oxo-3,4-dihydro-2H-benzo[b][1,4]oxazine-6-carboxamide] fall in the same range of pIC50: 7.00 to 7.60 for the first, 7.00 to 7.60 for the second.

`CC1(C)Oc2ccc(C(=O)NO)cc2N(CCCc2ccccc2)C1=O` [Compound I-298, N-hydroxy-2,2-dimethyl-3-oxo-4-(3-phenylpropyl)-3,4-dihydro-2H-benzo[b][1,4]oxazine-6-carboxamide] and `CC1(C)Oc2ccc(C(=O)NO)cc2N(Cc2ccc(C(F)(F)F)cc2)C1=O` [Compound I-305, N-hydroxy-2,2-dimethyl-3-oxo-4-(4-(trifluoromethyl)benzyl)-3,4-dihydro-2H-benzo[b][1,4]oxazine-6-carboxamide] fall in the same range of pIC50: 7.00 to 7.60 for the first, 7.00 to 7.60 for the second.

`O=C(NO)c1ccc2c(c1)N(Cc1cnc3[nH]ccc3c1)C(=O)CO2` [Compound I-324, 4-((1H-pyrrolo[2,3-b]pyridin-5-yl)methyl)-N-hydroxy-3-oxo-3,4-dihydro-2H-benzo[b][1,4]oxazine-6-carboxamide] and `O=C(NO)c1ccc2c(c1)N(Cc1ccn3ccnc3c1)C(=O)CO2` [Compound I-338, N-hydroxy-4-(imidazo[1,2-a]pyridin-7-ylmethyl)-3-oxo-3,4-dihydro-2H-benzo[b][1,4]oxazine-6-carboxamide] cannot be ordered by pIC50: 7.00 to 7.60 for the first, no less than 7.60 for the second.

`N#Cc1cccc(CN2C(=O)COc3ccc(C(=O)NO)cc32)c1` [Compound I-236, 4-(3-cyanobenzyl)-N-hydroxy-3-oxo-3,4-dihydro-2H-benzo[b][1,4]oxazine-6-carboxamide] and `COCCOc1cccc(CN2C(=O)COc3ccc(C(=O)NO)cc32)c1` [Compound I-197, N-hydroxy-4-(3-(2-methoxyethoxy)benzyl)-3-oxo-3,4-dihydro-2H-benzo[b][1,4]oxazine-6-carboxamide] cannot be ordered by pIC50: no less than 7.60 for the first, no less than 7.60 for the second.

`O=C(NO)c1ccc2c(c1)N(Cc1cnc3c(c1)OCCO3)C(=O)CO2` [Compound I-173, 4-((2,3-dihydro-[1,4]dioxino[2,3-b]pyridin-7-yl)methyl)-N-hydroxy-3-oxo-3,4-dihydro-2H-benzo[b][1,4]oxazine-6-carboxamide] and `O=C(NO)c1ccc2c(c1)N(Cc1ccc(Cl)c(C(F)(F)F)c1)C(=O)CO2` [Compound I-345, 4-(4-chloro-3-(trifluorornethyl)benzyl)-N-hydroxy-3-oxo-3,4-dihydro-2H-benzo[b][1,4]oxazine-6-carboxamide] cannot be ordered by pIC50: 7.00 to 7.60 for the first, no less than 7.60 for the second.

`Cc1cc2oc(CN3C(=O)COc4ccc(C(=O)NO)cc43)nc2cc1Cl` [Compound I-261, 4-((5-chloro-6-methylbenzo[d]oxazol-2-yl)methyl)-N-hydroxy-3-oxo-3,4-dihydro-2H-benzo[b][1,4]oxazine-6-carboxamide] and `O=C(NO)c1ccc2c(c1)N(Cc1cn(-c3ccccc3)cn1)C(=O)CO2` [Compound I-205, N-hydroxy-3-oxo-4-((1-phenyl-1H-imidazol-4-yl)methyl)-3,4-dihydro-2H-benzo[b][1,4]oxazine-6-carboxamide] cannot be ordered by pIC50: no less than 7.60 for the first, 7.00 to 7.60 for the second.
